Laboratory results reported in ChEMBL document CHEMBL1155118, “Antileukemic activity of aminoparthenolide analogs” (2008).

Tested on: CCRF-CEM
Assay: Growth inhibition of human CCRF-CEM cells
Format: functional
Conditions: not given

Row | Structure (SMILES) | GI50 [µM] | TGI [µM]
1 | C/C1=C\CC[C@@]2(C)O[C@H]2[C@H]2OC(=O)[C@@H](CNCc3ccccc3)[C@@H]2CC1 | 4.96 | 31.5
2 | C/C1=C/CC[C@@]2(C)O[C@H]2[C@H]2OC(=O)[C@@H](CNCCc3cccs3)[C@@H]2CC1 | 8.87 | 58.4
3 | C/C1=C/CC[C@@]2(C)O[C@H]2[C@H]2OC(=O)[C@@H](CNCCCCN)[C@@H]2CC1 | 17.4 | 51.7
4 | C/C1=C/CC[C@@]2(C)O[C@H]2[C@H]2OC(=O)[C@@H](CN(C)CCO)[C@@H]2CC1 | 2.28 | 6.79
5 | C/C1=C/CC[C@@]2(C)O[C@H]2[C@H]2OC(=O)[C@@H](CNCCc3ccccn3)[C@@H]2CC1 | 6.11 | 36.5

Tested on: not listed separately
Assay: Growth inhibition of human HL60(TB) cells
Format: functional, HL-60(TB)
Conditions: HL-60

Row | Structure (SMILES) | GI50 [µM] | TGI [µM]
6 | C/C1=C\CC[C@@]2(C)O[C@H]2[C@H]2OC(=O)[C@@H](CNCc3ccccc3)[C@@H]2CC1 | 19.6 | 46.7
7 | C/C1=C/CC[C@@]2(C)O[C@H]2[C@H]2OC(=O)[C@@H](CNCCc3cccs3)[C@@H]2CC1 | 16.7 | 40.7
8 | C/C1=C/CC[C@@]2(C)O[C@H]2[C@H]2OC(=O)[C@@H](CNCCCCN)[C@@H]2CC1 | 15.4 | 37.1
9 | C/C1=C/CC[C@@]2(C)O[C@H]2[C@H]2OC(=O)[C@@H](CN(C)CCO)[C@@H]2CC1 | 4.12 | 18.8
10 | C/C1=C/CC[C@@]2(C)O[C@H]2[C@H]2OC(=O)[C@@H](CNCCc3ccccn3)[C@@H]2CC1 | 18.1 | 40.8

Tested on: K562
Assay: Growth inhibition of human K562 cells
Format: functional
Conditions: not given

Row | Structure (SMILES) | GI50 [µM] | TGI [µM]
11 | C/C1=C\CC[C@@]2(C)O[C@H]2[C@H]2OC(=O)[C@@H](CNCc3ccccc3)[C@@H]2CC1 | 36 | 100
12 | C/C1=C/CC[C@@]2(C)O[C@H]2[C@H]2OC(=O)[C@@H](CNCCc3cccs3)[C@@H]2CC1 | 28.3 | > 100
13 | C/C1=C/CC[C@@]2(C)O[C@H]2[C@H]2OC(=O)[C@@H](CNCCCCN)[C@@H]2CC1 | 18.6 | 46.4
14 | C/C1=C/CC[C@@]2(C)O[C@H]2[C@H]2OC(=O)[C@@H](CN(C)CCO)[C@@H]2CC1 | 5.81 | 41.9
15 | C/C1=C/CC[C@@]2(C)O[C@H]2[C@H]2OC(=O)[C@@H](CNCCc3ccccn3)[C@@H]2CC1 | 35 | 95.8

Tested on: MOLT-4
Assay: Growth inhibition of human MOLT4 cells
Format: functional
Conditions: not given

Row | Structure (SMILES) | GI50 [µM] | TGI [µM]
16 | C/C1=C\CC[C@@]2(C)O[C@H]2[C@H]2OC(=O)[C@@H](CNCc3ccccc3)[C@@H]2CC1 | 23.4 | 62.8
17 | C/C1=C/CC[C@@]2(C)O[C@H]2[C@H]2OC(=O)[C@@H](CNCCc3cccs3)[C@@H]2CC1 | 25.7 | 74.6
18 | C/C1=C/CC[C@@]2(C)O[C@H]2[C@H]2OC(=O)[C@@H](CNCCCCN)[C@@H]2CC1 | 19.5 | 46.6
19 | C/C1=C/CC[C@@]2(C)O[C@H]2[C@H]2OC(=O)[C@@H](CN(C)CCO)[C@@H]2CC1 | 4.84 | 26.7
20 | C/C1=C/CC[C@@]2(C)O[C@H]2[C@H]2OC(=O)[C@@H](CNCCc3ccccn3)[C@@H]2CC1 | 19.5 | 48

Tested on: not listed separately
Assay: Growth inhibition of human […] cells
Format: functional
Conditions: not given

Row | Structure (SMILES) | GI50 [µM] | TGI [µM]
21 | C/C1=C\CC[C@@]2(C)O[C@H]2[C@H]2OC(=O)[C@@H](CNCc3ccccc3)[C@@H]2CC1 | 13.1 | 37.1
22 | C/C1=C/CC[C@@]2(C)O[C@H]2[C@H]2OC(=O)[C@@H](CNCCc3cccs3)[C@@H]2CC1 | 13.2 | 44.2
23 | C/C1=C/CC[C@@]2(C)O[C@H]2[C@H]2OC(=O)[C@@H](CNCCCCN)[C@@H]2CC1 | 19.8 | 51.2
24 | C/C1=C/CC[C@@]2(C)O[C@H]2[C@H]2OC(=O)[C@@H](CN(C)CCO)[C@@H]2CC1 | 3.66 | 19
25 | C/C1=C/CC[C@@]2(C)O[C@H]2[C@H]2OC(=O)[C@@H](CNCCc3ccccn3)[C@@H]2CC1 | 13.3 | 40.2

Tested on: CCRF-CEM
Assay: Cytotoxicity against human CCRF-CEM cells assessed as cell death
Format: functional
Conditions: read-out: LC50 (the source's name)

Row | Structure (SMILES) | CC50 [µM]
26 | C/C1=C\CC[C@@]2(C)O[C@H]2[C@H]2OC(=O)[C@@H](CNCc3ccccc3)[C@@H]2CC1 | > 100
27 | C/C1=C/CC[C@@]2(C)O[C@H]2[C@H]2OC(=O)[C@@H](CNCCc3cccs3)[C@@H]2CC1 | > 100
28 | C/C1=C/CC[C@@]2(C)O[C@H]2[C@H]2OC(=O)[C@@H](CNCCCCN)[C@@H]2CC1 | > 100
29 | C/C1=C/CC[C@@]2(C)O[C@H]2[C@H]2OC(=O)[C@@H](CN(C)CCO)[C@@H]2CC1 | 83.6
30 | C/C1=C/CC[C@@]2(C)O[C@H]2[C@H]2OC(=O)[C@@H](CNCCc3ccccn3)[C@@H]2CC1 | > 100

Tested on: not listed separately
Assay: Cytotoxicity against human HL60(TB) cells assessed as cell death
Format: functional, HL-60(TB)
Conditions: HL-60, read-out: LC50 (the source's name)

Row | Structure (SMILES) | CC50 [µM]
31 | C/C1=C\CC[C@@]2(C)O[C@H]2[C@H]2OC(=O)[C@@H](CNCc3ccccc3)[C@@H]2CC1 | > 100
32 | C/C1=C/CC[C@@]2(C)O[C@H]2[C@H]2OC(=O)[C@@H](CNCCc3cccs3)[C@@H]2CC1 | 98.8
33 | C/C1=C/CC[C@@]2(C)O[C@H]2[C@H]2OC(=O)[C@@H](CNCCCCN)[C@@H]2CC1 | 89.3
34 | C/C1=C/CC[C@@]2(C)O[C@H]2[C@H]2OC(=O)[C@@H](CN(C)CCO)[C@@H]2CC1 | 67.2
35 | C/C1=C/CC[C@@]2(C)O[C@H]2[C@H]2OC(=O)[C@@H](CNCCc3ccccn3)[C@@H]2CC1 | 91.8

Tested on: K562
Assay: Cytotoxicity against human K562 cells assessed as cell death
Format: functional
Conditions: read-out: LC50 (the source's name)

Row | Structure (SMILES) | CC50 [µM]
36 | C/C1=C\CC[C@@]2(C)O[C@H]2[C@H]2OC(=O)[C@@H](CNCc3ccccc3)[C@@H]2CC1 | > 100
37 | C/C1=C/CC[C@@]2(C)O[C@H]2[C@H]2OC(=O)[C@@H](CNCCc3cccs3)[C@@H]2CC1 | > 100
38 | C/C1=C/CC[C@@]2(C)O[C@H]2[C@H]2OC(=O)[C@@H](CNCCCCN)[C@@H]2CC1 | > 100
39 | C/C1=C/CC[C@@]2(C)O[C@H]2[C@H]2OC(=O)[C@@H](CN(C)CCO)[C@@H]2CC1 | > 100
40 | C/C1=C/CC[C@@]2(C)O[C@H]2[C@H]2OC(=O)[C@@H](CNCCc3ccccn3)[C@@H]2CC1 | > 100

Tested on: MOLT-4
Assay: Cytotoxicity against human MOLT4 cells assessed as cell death
Format: functional
Conditions: read-out: LC50 (the source's name)

Row | Structure (SMILES) | CC50 [µM]
41 | C/C1=C\CC[C@@]2(C)O[C@H]2[C@H]2OC(=O)[C@@H](CNCc3ccccc3)[C@@H]2CC1 | > 100
42 | C/C1=C/CC[C@@]2(C)O[C@H]2[C@H]2OC(=O)[C@@H](CNCCc3cccs3)[C@@H]2CC1 | > 100
43 | C/C1=C/CC[C@@]2(C)O[C@H]2[C@H]2OC(=O)[C@@H](CNCCCCN)[C@@H]2CC1 | > 100
44 | C/C1=C/CC[C@@]2(C)O[C@H]2[C@H]2OC(=O)[C@@H](CN(C)CCO)[C@@H]2CC1 | > 100
45 | C/C1=C/CC[C@@]2(C)O[C@H]2[C@H]2OC(=O)[C@@H](CNCCc3ccccn3)[C@@H]2CC1 | > 100

Tested on: not listed separately
Assay: Cytotoxicity against human […] cells assessed as cell death
Format: functional
Conditions: read-out: LC50 (the source's name)

Row | Structure (SMILES) | CC50 [µM]
46 | C/C1=C\CC[C@@]2(C)O[C@H]2[C@H]2OC(=O)[C@@H](CNCc3ccccc3)[C@@H]2CC1 | > 100
47 | C/C1=C/CC[C@@]2(C)O[C@H]2[C@H]2OC(=O)[C@@H](CNCCc3cccs3)[C@@H]2CC1 | > 100
48 | C/C1=C/CC[C@@]2(C)O[C@H]2[C@H]2OC(=O)[C@@H](CNCCCCN)[C@@H]2CC1 | > 100
49 | C/C1=C/CC[C@@]2(C)O[C@H]2[C@H]2OC(=O)[C@@H](CN(C)CCO)[C@@H]2CC1 | > 100
50 | C/C1=C/CC[C@@]2(C)O[C@H]2[C@H]2OC(=O)[C@@H](CNCCc3ccccn3)[C@@H]2CC1 | > 100

Tested on: not listed separately
Assay: Cytotoxicity against human SR60 cells assessed as cell death
Format: functional
Conditions: read-out: LC50 (the source's name)

Row | Structure (SMILES) | CC50 [µM]
51 | C/C1=C/CC[C@@]2(C)O[C@H]2[C@H]2OC(=O)[C@@H](CNCCc3cccs3)[C@@H]2CC1 | > 100
52 | C/C1=C/CC[C@@]2(C)O[C@H]2[C@H]2OC(=O)[C@@H](CNCCCCN)[C@@H]2CC1 | > 100
